The source made the active and inactive calls. The calls are words filed in the database; no cut-off is given here.
Assays:
Rattus norvegicus [1] = assay: Intrinsic sympathomimetic activity (ISA) measured as max. increase in heart rate over 60 min in reserpinized normotensive anesthetized rats at 1000 ug/kg iv; assay type: functional; set-up: unit not given here
[2] = Partition coefficient (logD7.4); assay type: physicochemical; details: octanol/water, pH 7.4
[3] = Dissociation constant (pKa); assay type: physicochemical
Rattus norvegicus [4] = assay: Effective dose was evaluated following intravenous administration in reserpinized normotensive anesthetized rats; assay type: functional
Rattus norvegicus [5] = assay: Intrinsic sympathomimetic activity (ISA) in the reserpinized normotensive anesthetized rats following intravenous administration at 1000 ug/kg; assay type: functional
Rattus norvegicus [6] = assay: Intrinsic sympathomimetic activity (ISA) measured as max increase in heart rate over 60 min in the reserpinized normotensive anesthetized rats at 1000 ug/kg iv; assay type: functional
[7] = molecular target: Beta-2 adrenergic receptor (Cavia porcellus) (UniProt Q8K4Z4)
[8] = molecular target: Beta-1 adrenergic receptor (Cavia porcellus, UniProt B0FL73); assay: In vitro inhibitory activity against beta-1 adrenergic receptor was measured by the inhibition of the positive chronotropic effect of isoproterenolin in isolated guinea pig atria.; details: read-out: pA2 (converted)
Beta-1 adrenergic receptor, sequence (B0FL73 whole entry): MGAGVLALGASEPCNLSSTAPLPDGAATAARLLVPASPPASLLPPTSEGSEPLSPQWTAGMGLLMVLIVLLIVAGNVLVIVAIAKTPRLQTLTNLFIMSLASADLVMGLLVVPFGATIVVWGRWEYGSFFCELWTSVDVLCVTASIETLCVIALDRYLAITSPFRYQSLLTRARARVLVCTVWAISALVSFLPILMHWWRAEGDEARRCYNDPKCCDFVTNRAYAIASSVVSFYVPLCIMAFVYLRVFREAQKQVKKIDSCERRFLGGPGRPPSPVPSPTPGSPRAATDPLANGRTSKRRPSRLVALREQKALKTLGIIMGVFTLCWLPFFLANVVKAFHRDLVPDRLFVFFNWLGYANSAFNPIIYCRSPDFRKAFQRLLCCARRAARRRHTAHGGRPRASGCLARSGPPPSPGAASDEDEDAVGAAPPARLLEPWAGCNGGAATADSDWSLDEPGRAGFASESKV

Beta-2 adrenergic receptor (Cavia porcellus), sequence (Q8K4Z4 whole entry, looked up): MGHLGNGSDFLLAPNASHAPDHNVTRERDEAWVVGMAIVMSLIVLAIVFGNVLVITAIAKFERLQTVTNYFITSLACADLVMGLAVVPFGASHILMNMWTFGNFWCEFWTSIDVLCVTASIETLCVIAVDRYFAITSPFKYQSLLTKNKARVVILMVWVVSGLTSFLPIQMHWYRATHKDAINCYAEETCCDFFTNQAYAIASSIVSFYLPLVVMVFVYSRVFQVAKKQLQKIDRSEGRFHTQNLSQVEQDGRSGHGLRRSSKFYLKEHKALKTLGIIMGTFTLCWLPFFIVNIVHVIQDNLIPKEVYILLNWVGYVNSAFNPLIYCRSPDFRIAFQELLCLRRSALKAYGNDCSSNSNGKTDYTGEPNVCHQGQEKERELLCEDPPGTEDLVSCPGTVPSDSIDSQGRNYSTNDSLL

SMILES | logD [2] | pKa [3] | Max increase (Rattus norvegicus [1]) | also measured
COc1ccc(CCNCC(O)COc2ccc(Cc3nc(-c4cccs4)c[nH]3)cc2)cc1OC (stereo not drawn) | 1.58 | 4.99 | 3 | –
N#Cc1ccccc1OCC(O)CNCCNC(=O)Nc1ccccc1.O (stereo not drawn) | – | – | – | ED50 (Rattus norvegicus [4]): 0.0029 mg/kg
O=C(NCCNCC(O)COc1ccc(-c2ncc[nH]2)cc1)Nc1ccccc1 (stereo not drawn) | 0.778 | 5.75 | – | –
CC(C)NCC(O)COc1ccc(-c2nc(-c3cccs3)c[nH]2)cc1 (stereo not drawn) | 1.18 | 4.9 | – | –
CCCCNC(=O)NCCNCC(O)COc1ccc(-c2nc(C)c[nH]2)cc1 (stereo not drawn) | 0.699 | 3.6 | – | –
COc1ccc(CCNCC(O)COc2ccc(CCc3nc(-c4cccs4)c[nH]3)cc2)cc1OC (stereo not drawn) | 1.53 | 5.45 | 0 | –
COc1ccc(CCNCC(O)COc2ccc(-c3nc(CN4CCOCC4)c[nH]3)cc2)cc1OC (stereo not drawn) | 0.215 | 3.54 | 30 | –
COc1ccc(CCNCC(O)COc2ccc(-c3nccn3C)cc2)cc1OC.Cl.Cl (stereo not drawn) | 0.881 | 6.7 | 47 | –
CCOCCNCC(O)COc1ccc(-c2nc(-c3cccs3)c[nH]2)cc1 (stereo not drawn) | 1.78 | 4.5 | – | –
COc1ccc(CCNCC(O)COc2ccc(CCc3nc(Br)c[nH]3)cc2)cc1OC (stereo not drawn) | 1 | 3.65 | – | –
COc1ccc(CCNCC(O)COc2ccc(-c3nc(-c4cccs4)c[nH]3)cc2C)cc1OC (stereo not drawn) | 2.76 | 4.55 | 21 | –
COc1ccc(CCNCC(O)COc2ccc(-c3nc(-c4cccs4)c[nH]3)cc2Cl)cc1OC (stereo not drawn) | 2.34 | 4.02 | 19 | –
COc1ccc(CCNCC(O)COc2ccc(-c3nccs3)cc2)cc1OC (stereo not drawn) | 0.505 | – | 70 | –
OC(CNCCc1ccncc1)COc1ccc(-c2nc(-c3cccs3)c[nH]2)cc1 (stereo not drawn) | 1.9 | 3.8 | – | ED50 (Rattus norvegicus [4]): 0.0654 mg/kg
COc1ccc(CCNCC(O)COc2ccc(-c3nc(-c4cccs4)c[nH]3)cc2)cc1OC (stereo not drawn) | – | – | – | ED50 (Rattus norvegicus [4]): 0.0479 mg/kg
COc1ccc(CCNCC(O)COc2ccc(Cc3nc(C)c[nH]3)cc2)cc1OC (stereo not drawn) | 0.301 | 7.01 | 0 | –
COc1ccc(CCNCC(O)COc2ccc(COCc3ncc[nH]3)cc2)cc1OC (stereo not drawn) | 0.633 | 5.5 | 2 | –
CCOCCNC[C@H](O)COc1ccc(-c2nc(-c3cccs3)c[nH]2)cc1 | 1.86 | 4.6 | – | ED50 (Rattus norvegicus [4]): 0.0784 mg/kg
COCc1[nH]c(-c2ccc(OCC(O)CNCCc3ccc(OC)c(OC)c3)cc2)nc1C (stereo not drawn) | 0.839 | 4.92 | – | –
COc1ccc(CCNCC(O)COc2ccc(-c3nc(Br)c[nH]3)cc2Cl)cc1OC (stereo not drawn) | 2.31 | 3.3 | 48 | –
COc1ccc(CCNCC(O)COc2ccc(-c3ncco3)cc2)cc1OC (stereo not drawn) | 1.6 | 8.4 | 19 | –
COc1ccc(CCNCC(O)COc2ccc(-c3nc(C)c[nH]3)cc2Br)cc1OC (stereo not drawn) | 1.6 | 5.7 | – | –
COc1ccc(CCNCC(O)COc2ccc(-c3nc(C)c[nH]3)cc2OC)cc1OC (stereo not drawn) | 0.968 | 6.35 | – | –
CC(C)NCC(O)COc1ccc(-c2ncc[nH]2)cc1 (stereo not drawn) | -0.569 | 5.65 | 53 | –
CC(C)NCC(O)COc1ccc(-c2nc(C(C)C)c[nH]2)cc1 (stereo not drawn) | 0.952 | 6.32 | – | –
COc1ccc(CCNC[C@H](O)COc2ccc(-c3nc(-c4cccs4)c[nH]3)cc2)cc1OC.Cl.Cl | – | – | 19 | –
Cc1c[nH]c(Cc2ccc(OCC(O)CNC(C)(C)C)cc2)n1 (stereo not drawn) | -0.638 | 6.93 | – | –
CC(C)NCC(O)COc1ccc(Cc2nc(Br)c[nH]2)cc1 (stereo not drawn) | 0.204 | 3.75 | 7 | Kb [8]: 3.16 nM
CCCNCC(O)COc1ccc(-c2nc(-c3cccs3)c[nH]2)cc1 (stereo not drawn) | 1.41 | 4.79 | – | –
COc1ccc(CCNCC(O)COc2ccc(OCc3ncc[nH]3)cc2)cc1OC (stereo not drawn) | 0.663 | 5.2 | – | –

More lines, main results first:

logD [2] | pKa [3] | SMILES | Max increase (Rattus norvegicus [1]) | also measured
0 | 5.55 | COc1ccc(CCNCC(O)COc2ccc(-c3nc(CO)c[nH]3)cc2)cc1OC (stereo not drawn) | – | –
1.32 | 5.9 | COCCc1c[nH]c(-c2ccc(OCC(O)CNCCc3ccc(OC)c(OC)c3)cc2)n1 (stereo not drawn) | 75 | –
0.301 | 3.95 | COc1ccc(CCNC[C@H](O)COc2ccc(Cc3nc(C(C)=O)c[nH]3)cc2)cc1OC | 0 | –
1.98 | 5.8 | COc1ccc(CCNCC(O)COc2ccc(-c3nc(Br)c(C)[nH]3)cc2)cc1OC (stereo not drawn) | – | Max increase (Rattus norvegicus [5]): 23
0.312 | 5.25 | CCOCc1c[nH]c(-c2ccc(OCC(O)CNCCc3ccc(OC)c(OC)c3)cc2)n1 (stereo not drawn) | 27 | –
1.79 | 6.78 | COc1ccc(CCNCC(O)COc2ccc(-c3nc(C(C)C)c[nH]3)cc2)cc1OC (stereo not drawn) | 24 | –
2.2 | 6.42 | COc1ccc(CCNC[C@H](O)COc2ccc(-c3nc(C(C)(C)C)c[nH]3)cc2)cc1OC | – | Max increase (Rattus norvegicus [6]): 21
0.694 | 3.6 | COc1ccc(CCNC[C@H](O)COc2ccc(-c3nc(C(C)=O)c[nH]3)cc2)cc1OC | – | ED50 (Rattus norvegicus [4]): 0.0074 mg/kg
1.61 | 3.48 | COc1ccc(CCNCC(O)COc2ccc(-c3nc(Cl)c[nH]3)cc2)cc1OC (stereo not drawn) | 42 | –
1.41 | 3.8 | CCOC(=O)c1c[nH]c(-c2ccc(OCC(O)CNCCc3ccc(OC)c(OC)c3)cc2)n1 (stereo not drawn) | 60 | –
0.799 | 5.64 | COCc1c[nH]c(-c2ccc(OCC(O)CNCCc3ccc(OC)c(OC)c3)cc2)n1 (stereo not drawn) | 38 | pA2 [7]: Active
1.28 | 4 | COc1ccc(CCNCC(O)COc2ccc(-c3nc(C(C)=O)c(C)[nH]3)cc2)cc1OC (stereo not drawn) | 24 | –
2.09 | 6.2 | COc1ccc(CCNCC(O)COc2ccc(-c3nc(C(C)(C)C)c[nH]3)cc2)cc1OC (stereo not drawn) | 48 | –
1.02 | 6.72 | COc1ccc(CCNCC(O)COc2ccc(-c3nc(C)c(C)[nH]3)cc2)cc1OC (stereo not drawn) | 19 | –
1.24 | 3.65 | COc1ccc(CCNCC(O)COc2ccc(-c3nc(Br)c[nH]3)cc2)cc1OC (stereo not drawn) | – | ED50 (Rattus norvegicus [4]): 0.0064 mg/kg
0.279 | 3.6 | COc1ccc(CCNCC(O)COc2ccc(-c3nc(C(N)=O)c[nH]3)cc2)cc1OC (stereo not drawn) | 47 | –
1.88 | 3.62 | COc1ccc(CCNCC(O)COc2ccc(-c3nc(C)c(Cl)[nH]3)cc2)cc1OC (stereo not drawn) | – | Max increase (Rattus norvegicus [5]): 19
